From patent US9498483B2, “2,3,5-trisubstituted thiophene compounds and uses thereof” (priority 2010, dated 2016)

How the values were obtained:
[1] = system: HCV replicon I389luc-ubi-neo/NS3-3′/ET in ET (Huh-lucubineo-ET) cells; experiment: Replicon assay (Biological Example 2), luciferase readout; format: cell-based; details: Hepatitis C virus
How it was run: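 EC50 values come from Hill fits of % inhibition of replicon-driven firefly luciferase, relative to no-compound wells. Compounds were serially diluted (10 points, 3-fold, 0.1 nM–50 μM final, 0.5% DMSO) onto ET replicon cells and read after 48 h.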

HCV polymerase = biological target: T1, HCV polymerase (Hepatitis C virus genotype 1b, UniProt Q9WMX2); experiment: Polymerase assay of Biological Example 1 (IC50 values of Table 3); format: biochemical; details: IC50 values of Table 3, polymerase assay of Biological Example 1; read-out: NS5B-enzyme3
T1 construct: (His)6 (C); made in house; host or cells: XL-1 cells (E. coli, by own knowledge)

[2] = ET cells, luciferase activity 48 hours after compound

SMILES | IC50 ([1]; between 100 nM and 5.0 uM) | IC50 (HCV polymerase) | IC50 [1, 2]
O=C(O)c1sc(-c2ccccc2)cc1N1C(=O)CN(S(=O)(=O)c2ccc(F)c(C(F)(F)F)c2)CC1C1CCCCC1 (stereo not shown) [Compound 66, 3-[2-Cyclohexyl-4-(4-fluoro-3-trifluoromethyl-benzenesulfonyl)-6-oxo-piperazin-1-yl]-5-phenyl-thiophene-2-carboxylic acid] | 100 to 5000 nM | 49 nM | –
CN1CCC(N2CC(=O)N(c3cc(-c4ccccc4)sc3C(=O)O)[C@H](C3CCCCC3)C2)CC1 [Compound 271, 3-[(R)-2-Cyclohexyl-4-(1-methyl-piperidin-4-yl)-6-oxo-piperazin-1-yl]-5-phenyl-thiophene-2-carboxylic acid] | – | 2470 nM | ≥ 5000 nM
CC(C)(C)c1ccc(S(=O)(=O)N2CC(=O)N(c3cc(-c4ccccc4)sc3C(=O)O)C(C3CCCCC3)C2)cc1 (stereo not shown) [Compound 105, 3-[4-(4-tert-Butyl-benzenesulfonyl)-2-cyclohexyl-6-oxo-piperazin-1-yl]-5-phenyl-thiophene-2-carboxylic acid] | 100 to 5000 nM | 2 nM | –
O=C(O)c1sc(-c2ccccc2)cc1N1C(=O)CN(S(=O)(=O)c2ccc(N3CC4CC3CO4)nc2)C[C@H]1C1CCCCC1 (stereo partly drawn) [Compound 217, 3-{(R)-2-Cyclohexyl-4-[6-(2-oxa-5-aza-bicyclo[2.2.1]hept-5-yl)-pyridine-3-sulfonyl]-6-oxo-piperazin-1-yl}-5-phenyl-thiophene-2-carboxylic acid] | – | 1 nM | ≤ 100 nM
CC(=O)N1CCN(c2ccc(S(=O)(=O)N3CC(=O)N(c4cc(-c5ccccc5)sc4C(=O)O)C(C4CCCCC4)C3)cn2)CC1 (stereo not shown) [Compound 89, 3-{4-[6-(4-Acetyl-piperazin-1-yl)-pyridine-3-sulfonyl]-2-cyclohexyl-6-oxo-piperazin-1-yl}-5-phenyl-thiophene-2-carboxylic acid] | – | 3 nM | ≤ 100 nM
O=C(O)c1sc(-c2ccc(F)cc2)cc1N1C(=O)CN(S(=O)(=O)c2ccc(N3CCOCC3)nc2)C[C@H]1C1CCCCC1 [Compound 189, 3-[(R)-2-Cyclohexyl-4-(6-morpholin-4-yl-pyridine-3-sulfonyl)-6-oxo-piperazin-1-yl]-5-(4-fluoro-phenyl)-thiophene-2-carboxylic acid] | – | 1 nM | ≤ 100 nM
O=C(O)c1sc(-c2ccccc2)cc1N1C(=O)CN(S(=O)(=O)c2ccc(C3=CCCC3)nc2)C[C@H]1C1CCCCC1 [Compound 215, 3-[(R)-2-Cyclohexyl-4-(6-cyclopent-1-enyl-pyridine-3-sulfonyl)-6-oxo-piperazin-1-yl]-5-phenyl-thiophene-2-carboxylic acid] | 100 to 5000 nM | 2 nM | –
C[C@H]1[C@@H](C2CCCCC2)N(c2cc(C#CC(C)(C)C)sc2C(=O)O)C(=O)N1C [Compound 237, 3-((4S,5R)-5-Cyclohexyl-3,4-dimethyl-2-oxo-imidazolidin-1-yl)-5-(3,3-dimethyl-but-1-ynyl)-thiophene-2-carboxylic acid] | 100 to 5000 nM | 42 nM | –
CCc1ccc(S(=O)(=O)N2CC(=O)N(c3cc(-c4ccccc4)sc3C(=O)O)C(C3CCCCC3)C2)cc1 (stereo not shown) [Compound 56, 3-[2-Cyclohexyl-4-(4-ethyl-benzenesulfonyl)-6-oxo-piperazin-1-yl]-5-phenyl-thiophene-2-carboxylic acid] | 100 to 5000 nM | 7.1 nM | –
O=C(O)c1sc(-c2ccccc2)cc1N1C(=O)CC(O)CC1C1CCCCC1 (stereo not shown) [Compound 12] | 100 to 5000 nM | 45 nM | –
CC(C)(C)C#Cc1cc(N2C(=O)CN(S(=O)(=O)c3ccc4oc(=O)[nH]c4c3)C[C@H]2C2CCCCC2)c(C(=O)O)s1 [Compound 252, 3-[(R)-2-Cyclohexyl-6-oxo-4-(2-oxo-2,3-dihydro-benzooxazole-5-sulfonyl)-piperazin-1-yl]-5-(3,3-dimethyl-but-1-ynyl)-thiophene-2-carboxylic acid] | 100 to 5000 nM | 2 nM | –
Cc1ccc(-c2cc(N3C(=O)CN(S(=O)(=O)c4ccc(C(F)(F)F)nc4)C[C@H]3C3CCCCC3)c(C(=O)O)s2)cc1 [Compound 300, 3-[(R)-2-Cyclohexyl-6-oxo-4-(6-trifluoromethyl-pyridine-3-sulfonyl)-piperazin-1-yl]-5-p-tolyl-thiophene-2-carboxylic acid] | 100 to 5000 nM | 31 nM | –
Cc1ccc(-c2cc(N3C(=O)CN(S(=O)(=O)c4ccc(N5CC6CCC(C5)O6)nc4)C[C@H]3C3CCCCC3)c(C(=O)O)s2)cc1 [Compound 198, 3-{(R)-2-Cyclohexyl-4-[6-(8-oxa-3-aza-bicyclo[3.2.1]oct-3-yl)-pyridine-3-sulfonyl]-6-oxo-piperazin-1-yl}-5-p-tolyl-thiophene-2-carboxylic acid] | – | 1 nM | ≤ 100 nM
O=C(O)c1ccc(S(=O)(=O)N2CC(=O)N(c3cc(-c4ccccc4)sc3C(=O)O)C(C3CCCCC3)C2)cc1 (stereo not shown) [Compound 30, 3-[4-(4-Carboxy-benzenesulfonyl)-2-cyclohexyl-6-oxo-piperazin-1-yl]-5-phenyl-thiophene-2-carboxylic acid] | – | 3 nM | ≥ 5000 nM
C[C@@H]1CN(c2ccc(S(=O)(=O)N3CC(=O)N(c4cc(-c5ccc(F)cc5)sc4C(=O)O)[C@H](C4CCCCC4)C3)cn2)C[C@H](C)O1 [Compound 278, 3-{(R)-2-Cyclohexyl-4-[6-((2R,6S)-2,6-dimethyl-morpholin-4-yl)-pyridine-3-sulfonyl]-6-oxo-piperazin-1-yl}-5-(4-fluoro-phenyl)-thiophene-2-carboxylic acid] | – | 1 nM | ≤ 100 nM
COc1ccncc1-c1ccc(S(=O)(=O)N2CC(=O)N(c3cc(-c4ccccc4)sc3C(=O)O)[C@H](C3CCCCC3)C2)cn1 [Compound 204, 3-[(R)-2-Cyclohexyl-4-(4′-methoxy-[2,3′]bipyridinyl-5-sulfonyl)-6-oxo-piperazin-1-yl]-5-phenyl-thiophene-2-carboxylic acid] | 100 to 5000 nM | 2 nM | –
CC(C)(C)C#Cc1cc(N2C(=O)C(N)CC[C@H]2C2CCCCC2)c(C(=O)O)s1 (stereo partly drawn) [Compound 340, 3-((S)-3-Amino-6-cyclohexyl-2-oxo-piperidin-1-yl)-5-(3,3-dimethyl-but-1-ynyl)-thiophene-2-carboxylic acid] | – | 8 nM | ≤ 100 nM
C[C@@H]1CCCN1c1ccc(S(=O)(=O)N2CC(=O)N(c3cc(-c4ccccc4)sc3C(=O)O)C(C3CCCCC3)C2)cn1 (stereo partly drawn) [Compound 118, 3-{2-Cyclohexyl-4-[6-((R)-2-methyl-pyrrolidin-1-yl)-pyridine-3-sulfonyl]-6-oxo-piperazin-1-yl}-5-phenyl-thiophene-2-carboxylic acid] | – | 2 nM | ≤ 100 nM
CCc1ccc(S(=O)(=O)N2CC(=O)N(c3cc(-c4ccccc4)sc3C(=O)O)C(C3CCCCC3)C2)cc1 (single isomer, unassigned) [Compound 55, 3-[2-Cyclohexyl-4-(4-ethyl-benzenesulfonyl)-6-oxo-piperazin-1-yl]-5-phenyl-thiophene-2-carboxylic acid] | 100 to 5000 nM | 71 nM | –
Cc1ccc(-c2cc(N3C(=O)CN(S(=O)(=O)c4ccc(N5CCOC[C@H]5C)nc4)C[C@H]3C3CCCCC3)c(C(=O)O)s2)cc1 [Compound 197, 3-{(R)-2-Cyclohexyl-4-[6-((R)-3-methyl-morpholin-4-yl)-pyridine-3-sulfonyl]-6-oxo-piperazin-1-yl}-5-p-tolyl-thiophene-2-carboxylic acid] | – | 4.6 nM | ≤ 100 nM
C[C@@H](O)CC[C@]1(C)OC[C@@H](C2CCCCC2)N(c2cc(C#CC(C)(C)C)sc2C(=O)O)C1=O [Compound 320, 3-[(2S,5R)-5-Cyclohexyl-2-((R)-3-hydroxy-butyl)-2-methyl-3-oxo-morpholin-4-yl]-5-(3,3-dimethyl-but-1-ynyl)-thiophene-2-carboxylic acid] | – | 6 nM | ≤ 100 nM
O=C(O)c1sc(-c2ccccc2)cc1N1C(=O)CN(S(=O)(=O)c2ccc(NC3CCOCC3)nc2)CC1C1CCCCC1 (stereo not shown) [Compound 90, 3-{2-Cyclohexyl-6-oxo-4-[6-(tetrahydro-pyran-4-ylamino)-pyridine-3-sulfonyl]-piperazin-1-yl}-5-phenyl-thiophene-2-carboxylic acid] | – | 4 nM | ≤ 100 nM
Cn1ccc(S(=O)(=O)N2CC(=O)N(c3cc(C#CC(C)(C)C)sc3C(=O)O)[C@H](C3CCCCC3)C2)n1 [Compound 193, 3-[(R)-2-Cyclohexyl-4-(1-methyl-1H-pyrazole-3-sulfonyl)-6-oxo-piperazin-1-yl]-5-(3,3-dimethyl-but-1-ynyl)-thiophene-2-carboxylic acid] | – | 1 nM | ≤ 100 nM
Cc1ccc(-c2cc(N3C(=O)CN(S(=O)(=O)c4ccc(N5C[C@H]6C[C@@H]5CO6)nc4)C[C@H]3C3CCCCC3)c(C(=O)O)s2)cc1 [Compound 289, 3-{(R)-2-Cyclohexyl-4-[(1R,4R)-6-(2-oxa-5-aza-bicyclo[2.2.1]hept-5-yl)-pyridine-3-sulfonyl]-6-oxo-piperazin-1-yl}-5-p-tolyl-thiophene-2-carboxylic acid] | – | 1 nM | ≤ 100 nM
CC1CCC(C)N1c1ccc(S(=O)(=O)N2CC(=O)N(c3cc(-c4ccccc4)sc3C(=O)O)C(C3CCCCC3)C2)cn1 (stereo not shown) [Compound 92, 3-{2-Cyclohexyl-4-[6-(2,5-dimethyl-pyrrolidin-1-yl)-pyridine-3-sulfonyl]-6-oxo-piperazin-1-yl}-5-phenyl-thiophene-2-carboxylic acid] | – | 4 nM | ≤ 100 nM
C[C@@H]1CCCN1c1ccc(S(=O)(=O)N2CC(=O)N(c3cc(-c4ccc(F)cc4)sc3C(=O)O)[C@H](C3CCCCC3)C2)cn1 [Compound 185, 3-{(R)-2-Cyclohexyl-4-[6-((R)-2-methyl-pyrrolidin-1-yl)-pyridine-3-sulfonyl]-6-oxo-piperazin-1-yl}-5-(4-fluoro-phenyl)-thiophene-2-carboxylic acid] | – | 1 nM | ≤ 100 nM
